Measured values: BindingDB's records for doi:10.1021/jm970021c (Warner-Lambert, 1997)

experiment: Agonist activation of human dopamine receptor stimulating mitogenesis in Dopamine receptor D4-transfected CHO pro-5 cells using [3H]thymidine as radioligand

Compound | EC50
N#Cc1ccccc1N1CCN(CNC(=O)c2ccc(Cl)cc2)CC1 [4-Chloro-N-[4-(2-cyano-phenyl)-piperazin-1-ylmethyl]-benzamide] | > 3.9 nM
Cc1cccc(C(=O)NCN2CCN(c3ccccc3Cl)CC2)c1 [N-[4-(2-Chloro-phenyl)-piperazin-1-ylmethyl]-3-methyl-benzamide] | 16 nM
Cc1ccc(C(=O)NCN2CCN(c3ccccc3Cl)CC2)cc1 [N-[4-(2-Chloro-phenyl)-piperazin-1-ylmethyl]-4-methyl-benzamide] | 218 nM
O=C(NCN1CCN(c2ccccc2Cl)CC1)c1ccccc1 [N-[4-(2-Chloro-phenyl)-piperazin-1-ylmethyl]-benzamide] | 106 nM
N#Cc1ccccc1N1CCN(CNC(=O)c2ccccc2)CC1 [N-[4-(2-Cyano-phenyl)-piperazin-1-ylmethyl]-benzamide] | 24 nM
COc1ccccc1N1CCN(CNC(=O)c2ccccc2)CC1 [N-[4-(2-Methoxy-phenyl)-piperazin-1-ylmethyl]-benzamide] | 31 nM

Other lines, results leading:

EC50 | Compound
5.3 nM | N#Cc1ccccc1N1CCN(CNC(=O)c2cccc(Cl)c2)CC1 [3-Chloro-N-[4-(2-cyano-phenyl)-piperazin-1-ylmethyl]-benzamide]
15 nM | COc1ccccc1N1CCN(CNC(=O)c2cccc(Cl)c2)CC1 [3-Chloro-N-[4-(2-methoxy-phenyl)-piperazin-1-ylmethyl]-benzamide]
8.4 nM | O=C(NCN1CCN(c2ccccc2Cl)CC1)c1ccc(Cl)cc1 [4-Chloro-N-[4-(2-chloro-phenyl)-piperazin-1-ylmethyl]-benzamide]
8.4 nM | COc1ccccc1N1CCN(CNC(=O)c2ccc(Cl)cc2)CC1 [4-Chloro-N-[4-(2-methoxy-phenyl)-piperazin-1-ylmethyl]-benzamide]
1.2 nM | Cc1ccc(C(=O)NCN2CCN(c3ccccc3C#N)CC2)cc1 [N-[4-(2-Cyano-phenyl)-piperazin-1-ylmethyl]-4-methyl-benzamide]
13 nM | COc1ccccc1N1CCN(CNC(=O)c2cccc(C)c2)CC1 [N-[4-(2-Methoxy-phenyl)-piperazin-1-ylmethyl]-3-methyl-benzamide]
3.4 nM | COc1ccccc1N1CCN(CNC(=O)c2ccc(C)cc2)CC1 [N-[4-(2-Methoxy-phenyl)-piperazin-1-ylmethyl]-4-methyl-benzamide]
